Measured values reported in PubChem BioAssay AID248 (DTP/NCI, 2004).
Values joined by “and” are separate entries in the source; they are usually repeats but may differ in a detail not shown here. Identical values can stand only once. Inconclusive results and toxic doses are left out. Cut-off read from the data, not from the text of the source: active = T/C of 150% or more; inactive = T/C below 125%.

System: L1210 leukemia ip in BDF1 mice, survival T/C
Assay: NCI In Vivo Anticancer Drug Screen. Data for tumor model L1210 Leukemia (intraperitoneal) in B6D2F1 (BDF1) mice
Details: endpoint: mean survival time, higher = longer survival
In short: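 Each compound was tested against a transplantable tumor grown in mice. The endpoint was survival, with treated animals benchmarked against vehicle controls as a simple ratio.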

[1] = dose: 100.0 mg/kg/injection, schedule: Q04DX002 (ip), vehicle: saline with Tween-80
[2] = dose: 100.0 mg/kg/injection, schedule: Q04DX002 (ip), vehicle: Klucel (hydroxypropylcellulose) (HPC)
[3] = dose: 200.0 mg/kg/injection, schedule: Q04DX002 (ip), vehicle: Klucel (hydroxypropylcellulose) (HPC)
[4] = dose: 400.0 mg/kg/injection, schedule: Q04DX002 (ip), vehicle: Klucel (hydroxypropylcellulose) (HPC)
[5] = dose: 100.0 mg/kg/injection, schedule: Q01DX009 (ip), vehicle: saline
[6] = dose: 200.0 mg/kg/injection, schedule: Q01DX009 (ip), vehicle: saline
[7] = dose: 400.0 mg/kg/injection, schedule: Q01DX009 (ip), vehicle: saline
[8] = dose: 100.0 mg/kg/injection, schedule: Q01DX001 (ip), vehicle: carboxymethylcellulose (CMC)
[9] = dose: 100.0 mg/kg/injection, schedule: Q01DX009 (ip), vehicle: Klucel (hydroxypropylcellulose) (HPC)
[10] = dose: 200.0 mg/kg/injection, schedule: Q01DX001 (ip), vehicle: carboxymethylcellulose (CMC)
[11] = dose: 200.0 mg/kg/injection, schedule: Q01DX009 (ip), vehicle: Klucel (hydroxypropylcellulose) (HPC)
[12] = dose: 400.0 mg/kg/injection, schedule: Q01DX001 (ip), vehicle: carboxymethylcellulose (CMC)
[13] = dose: 400.0 mg/kg/injection, schedule: Q01DX009 (ip), vehicle: Klucel (hydroxypropylcellulose) (HPC)

Measured: T/C

c1cc[c]([Sn]([CH2]Cc2ccncc2)([c]2ccccc2)[c]2ccccc2)cc1
inactive: dose: 100.0 mg/kg/injection, schedule: Q04DX002 (sc), vehicle: olive oil, sesame oil, peanut oil 110 % of control | dose: 200.0 mg/kg/injection, schedule: Q04DX002 (sc), vehicle: olive oil, sesame oil, peanut oil 100 % of control | dose: 400.0 mg/kg/injection, schedule: Q04DX002 (sc), vehicle: olive oil, sesame oil, peanut oil 103 % of control

CCS(=O)(=O)c1ccc(NC(=O)OC2CCCCCCC2)cc1
inactive: dose: 100.0 mg/kg/injection, schedule: Q01DX001 (ip), vehicle: other 93 % of control | dose: 200.0 mg/kg/injection, schedule: Q01DX001 (ip), vehicle: other 93 % of control | dose: 400.0 mg/kg/injection, schedule: Q01DX001 (ip), vehicle: other 93 % of control

COc1cc2c(cc1OC)N=Cc1cccn1C2
inactive: dose: 25.0 mg/kg/injection, schedule: Q04DX002 (ip), vehicle: saline with Tween-80 94 % of control | dose: 50.0 mg/kg/injection, schedule: Q04DX002 (ip), vehicle: saline with Tween-80 97 % of control | [1] 90 % of control

CC(CCC(=O)O)([N+](=O)[O-])[N+](=O)[O-]
inactive: dose: 100.0 mg/kg/injection, schedule: Q01DX001 (ip), vehicle: Klucel (hydroxypropylcellulose) (HPC) 98 % of control | dose: 200.0 mg/kg/injection, schedule: Q01DX001 (ip), vehicle: Klucel (hydroxypropylcellulose) (HPC) 102 % of control | dose: 400.0 mg/kg/injection, schedule: Q01DX001 (ip), vehicle: Klucel (hydroxypropylcellulose) (HPC) 98 % of control

N#CC(Sc1ccccc1)c1ccccc1 (stereo not given)
inactive: [2] 119 % of control | [3] 97 % of control | [4] 86 % of control

CC(=O)OCCC(CCOC(C)=O)=C1N=C(c2ccccc2)OC1=O
inactive: [5] 97 % of control | dose: 100.0 mg/kg/injection, schedule: Q04DX003 (ip), vehicle: other 101 % of control | [6] 105 % of control | dose: 200.0 mg/kg/injection, schedule: Q04DX003 (ip), vehicle: other 104 % of control | [7] 92 % of control | dose: 400.0 mg/kg/injection, schedule: Q04DX003 (ip), vehicle: other 101 % of control

Cc1ccc(S(=O)(=O)N2CCC(Br)(Br)C(=O)c3ccccc32)cc1
inactive: [5] 97 % of control | [6] 100 % of control | [7] 102 % of control

O=C1NC(=S)S/C1=C/c1ccco1
inactive: [2] 105 % of control | [3] 98 % of control | [4] 105 % of control

CNC(=O)Nc1cc2ccccc2o1
inactive: dose: 100.0 mg/kg/injection, schedule: Q04DX003 (ip), vehicle: saline with Tween-80 101 % of control | dose: 200.0 mg/kg/injection, schedule: Q04DX003 (ip), vehicle: saline with Tween-80 92 % of control | dose: 400.0 mg/kg/injection, schedule: Q04DX003 (ip), vehicle: saline with Tween-80 92 % of control

Oc1cccc(C(c2ccccc2)C2CCCCC2)c1 (stereo not given)
inactive: dose: 100.0 mg/kg/injection, schedule: Q01DX001 (ip), vehicle: saline with Tween-80 98 % of control | dose: 200.0 mg/kg/injection, schedule: Q01DX001 (ip), vehicle: saline with Tween-80 88 % of control | dose: 400.0 mg/kg/injection, schedule: Q01DX001 (ip), vehicle: saline with Tween-80 98 % of control

CC1=NN(c2ccc(S(=O)(=O)O)cc2)C(=O)/C1=C/c1ccc(Cl)cc1
inactive: dose: 100.0 mg/kg/injection, schedule: Q01DX009 (ip), vehicle: saline sonified 105 % of control | dose: 200.0 mg/kg/injection, schedule: Q01DX009 (ip), vehicle: saline sonified 100 % of control | dose: 200.0 mg/kg/injection, schedule: Q04DX003 (ip), vehicle: saline 102 % of control | dose: 400.0 mg/kg/injection, schedule: Q01DX009 (ip), vehicle: saline sonified 104 % of control | dose: 400.0 mg/kg/injection, schedule: Q04DX003 (ip), vehicle: saline 98 % of control

CCOC(=O)c1c(/N=C/c2cc(Br)cc(Br)c2O)sc2c1CCCC2
inactive: [1] 91 % of control | dose: 200.0 mg/kg/injection, schedule: Q04DX002 (ip), vehicle: saline with Tween-80 102 % of control | dose: 400.0 mg/kg/injection, schedule: Q04DX002 (ip), vehicle: saline with Tween-80 105 % of control

COC1OC(CCl)C(OC(=O)c2ccccc2)C(OC(=O)c2ccccc2)C1OC(=O)c1ccccc1 (stereo not given)
inactive: [2] 114 % of control | [3] 101 % of control | [4] 104 % of control

CC(CC12CC3CC(CC(C3)C1)C2)NN (stereo not given)
inactive: dose: 25.0 mg/kg/injection, schedule: Q04DX002 (ip), vehicle: Klucel (hydroxypropylcellulose) (HPC) 101 % of control | dose: 50.0 mg/kg/injection, schedule: Q04DX002 (ip), vehicle: Klucel (hydroxypropylcellulose) (HPC) 86 % of control

CON(C)c1nc(Cl)nc(N(C)OC)n1
inactive: [8] 96 % of control | [9] 97 % of control | [10] 94 % of control | [11] 105 % of control | [12] 107 % of control | [13] 105 % of control

CN(/N=N/c1nc[nH]c1C(N)=O)C(C)(C)C
inactive: dose: 12.5 mg/kg/injection, schedule: Q01DX009 (ip), vehicle: saline with Tween-80 103 % of control | dose: 12.5 mg/kg/injection, schedule: Q04DX009 (ip), vehicle: saline with Tween-80 98 % of control | dose: 25.0 mg/kg/injection, schedule: Q01DX009 (ip), vehicle: saline with Tween-80 93 % of control | dose: 25.0 mg/kg/injection, schedule: Q04DX003 (ip), vehicle: Klucel (hydroxypropylcellulose) (HPC) 100 % of control | dose: 25.0 mg/kg/injection, schedule: Q04DX009 (ip), vehicle: saline with Tween-80 103 % of control | dose: 50.0 mg/kg/injection, schedule: Q01DX009 (ip), vehicle: saline with Tween-80 101 % of control | dose: 50.0 mg/kg/injection, schedule: Q04DX003 (ip), vehicle: Klucel (hydroxypropylcellulose) (HPC) 103 % of control | dose: 50.0 mg/kg/injection, schedule: Q04DX009 (ip), vehicle: saline with Tween-80 103 % of control | [9] 97 % of control | dose: 100.0 mg/kg/injection, schedule: Q01DX009 (ip), vehicle: saline with Tween-80 103 % of control | dose: 100.0 mg/kg/injection, schedule: Q04DX003 (ip), vehicle: Klucel (hydroxypropylcellulose) (HPC) 102 % of control | dose: 100.0 mg/kg/injection, schedule: Q04DX009 (ip), vehicle: saline with Tween-80 103 % of control | [11] 96 % of control | dose: 200.0 mg/kg/injection, schedule: Q01DX009 (ip), vehicle: saline with Tween-80 103 % of control | dose: 200.0 mg/kg/injection, schedule: Q04DX003 (ip), vehicle: Klucel (hydroxypropylcellulose) (HPC) 111 % of control | dose: 200.0 mg/kg/injection, schedule: Q04DX009 (ip), vehicle: saline with Tween-80 101 % of control | [13] 97 % of control | dose: 400.0 mg/kg/injection, schedule: Q01DX009 (ip), vehicle: saline with Tween-80 97 % of control | dose: 400.0 mg/kg/injection, schedule: Q04DX003 (ip), vehicle: Klucel (hydroxypropylcellulose) (HPC) 105 % of control | dose: 400.0 mg/kg/injection, schedule: Q04DX009 (ip), vehicle: saline with Tween-80 101 % of control

C=CC(C)C(C)CC (stereo not given)
inactive: dose: 50.0 mg/kg/injection, schedule: Q01DX001 (ip), vehicle: carboxymethylcellulose (CMC) 104 % of control | [8] 95 % of control | [10] 93 % of control | [12] 101 % of control

CCCCCCCCCCCCCCCCCC(=O)NCNC(=O)CCCCCCCCCCCCCCCCC
inactive: dose: 9.37 mg/kg/injection, schedule: Q01DX009 (ip), vehicle: saline with Tween-80 92 % of control | dose: 18.75 mg/kg/injection, schedule: Q01DX009 (ip), vehicle: saline with Tween-80 90 % of control | dose: 37.5 mg/kg/injection, schedule: Q01DX009 (ip), vehicle: saline with Tween-80 86 % of control and 89 % of control | dose: 37.5 mg/kg/injection, schedule: Q04DX003 (ip), vehicle: saline with Tween-80 89 % of control | dose: 75.0 mg/kg/injection, schedule: Q04DX003 (ip), vehicle: saline with Tween-80 89 % of control | dose: 150.0 mg/kg/injection, schedule: Q04DX003 (ip), vehicle: saline with Tween-80 87 % of control

CC(=O)Nc1cccc(C(F)(F)F)c1
inactive: dose: 25.0 mg/kg/injection, schedule: Q01DX009 (ip), vehicle: Klucel (hydroxypropylcellulose) (HPC) 101 % of control | dose: 50.0 mg/kg/injection, schedule: Q01DX009 (ip), vehicle: Klucel (hydroxypropylcellulose) (HPC) 96 % of control | [9] 101 % of control
